Measurements reported in the supplement of paper PMC10307832.

What was measured:
Assay in all cases: relative viability (nuclei count vs DMSO), 5 days (fraction); higher = more cells survive
NCI-H2009 = test system: NCI-H2009
Procedure, shortened: (§1)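 Relative viability equals treated-well nuclei counts divided by vehicle-well nuclei counts. Counts came from 4× images of lung cancer cell lines grown in 1536-well plates for 5 days after pin-tool dosing on the day after seeding. Dosing used one drug alone or a fixed anchor-drug dose plus five library-drug doses (not always all listed) in √10 steps, and values are medians of duplicate plates.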

LOU-NH91 = test system: LOU-NH91
Procedure, shortened: as §1

NCI-H596 = test system: NCI-H596
Procedure, shortened: as §1

LC-2-ad = test system: LC-2-ad
Procedure, shortened: as §1

HCC-366 = test system: HCC-366
Procedure, shortened: as §1

HCC-44 = test system: HCC-44
Procedure, shortened: as §1

HCC-827 = test system: HCC-827
Procedure, shortened: as §1

NCI-H661 = test system: NCI-H661
Procedure, shortened: as §1

NCI-H2342 = test system: NCI-H2342
Procedure, shortened: as §1

SK-LU-1 = test system: SK-LU-1
Procedure, shortened: as §1

HARA = test system: HARA
Procedure, shortened: as §1

BEN = test system: BEN
Procedure, shortened: as §1

NCI-H1355 = test system: NCI-H1355
Procedure, shortened: as §1

NCI-H2087 = test system: NCI-H2087
Procedure, shortened: as §1

EKVX = test system: EKVX
Procedure, shortened: as §1

SK-MES-1 = test system: SK-MES-1
Procedure, shortened: as §1

NCI-H1792 = test system: NCI-H1792
Procedure, shortened: as §1

NCI-H647 = test system: NCI-H647
Procedure, shortened: as §1

NCI-H1437 = test system: NCI-H1437
Procedure, shortened: as §1

NCI-H2170 = test system: NCI-H2170
Procedure, shortened: as §1

NCI-H2228 = test system: NCI-H2228
Procedure, shortened: as §1

NCI-H1734 = test system: NCI-H1734
Procedure, shortened: as §1

NCI-H2405 = test system: NCI-H2405
Procedure, shortened: as §1

NCI-H1395 = test system: NCI-H1395
Procedure, shortened: as §1

## C[C@@H]1CN(CC(=O)Nc2ccc3c(c2)Cc2cccc(-c4cc(=O)cc(N5CCOCC5)o4)c2S3)C[C@H](C)O1 + N=C(N)NC(=N)NCCc1ccccc1 [Phenformin] (partner 250 µM)
NCI-H2009; first compound 0.04 µM
  relative viability: 0.525
NCI-H2009; first compound 0.1265 µM
  relative viability: 0.494
NCI-H2009; first compound 0.4 µM
  relative viability: 0.453
NCI-H2009; first compound 4 µM
  relative viability: 0.384
LOU-NH91; first compound 0.04 µM
  relative viability: 0.792
LOU-NH91; first compound 0.1265 µM
  relative viability: 0.691
LOU-NH91; first compound 0.4 µM
  relative viability: 0.696
LOU-NH91; first compound 4 µM
  relative viability: 0.667
NCI-H596; first compound 0.04 µM
  relative viability: 0.792
NCI-H596; first compound 0.1265 µM
  relative viability: 0.658
NCI-H596; first compound 0.4 µM
  relative viability: 0.635
NCI-H596; first compound 4 µM
  relative viability: 0.757
LC-2-ad; first compound 0.04 µM
  relative viability: 0.695
LC-2-ad; first compound 0.1265 µM
  relative viability: 0.593
LC-2-ad; first compound 0.4 µM
  relative viability: 0.587
LC-2-ad; first compound 4 µM
  relative viability: 0.662
HCC-366; first compound 0.04 µM
  relative viability: 0.659
HCC-366; first compound 0.1265 µM
  relative viability: 0.656
HCC-366; first compound 0.4 µM
  relative viability: 0.634
HCC-366; first compound 4 µM
  relative viability: 0.681
HCC-44; first compound 0.04 µM
  relative viability: 0.176
HCC-44; first compound 0.1265 µM
  relative viability: 0.233
HCC-44; first compound 0.4 µM
  relative viability: 0.161
HCC-44; first compound 4 µM
  relative viability: 0.114
HCC-827; first compound 0.04 µM
  relative viability: 0.429
HCC-827; first compound 0.1265 µM
  relative viability: 0.402
HCC-827; first compound 0.4 µM
  relative viability: 0.401
HCC-827; first compound 4 µM
  relative viability: 0.415
NCI-H661; first compound 0.04 µM
  relative viability: 0.261
NCI-H661; first compound 0.1265 µM
  relative viability: 0.274
NCI-H661; first compound 0.4 µM
  relative viability: 0.262
NCI-H661; first compound 4 µM
  relative viability: 0.317
NCI-H2342; first compound 0.04 µM
  relative viability: 0.625
NCI-H2342; first compound 0.1265 µM
  relative viability: 0.568
NCI-H2342; first compound 0.4 µM
  relative viability: 0.525
NCI-H2342; first compound 4 µM
  relative viability: 0.519
SK-LU-1; first compound 0.04 µM
  relative viability: 0.621
SK-LU-1; first compound 0.1265 µM
  relative viability: 0.531
SK-LU-1; first compound 0.4 µM
  relative viability: 0.516
SK-LU-1; first compound 4 µM
  relative viability: 0.373
HARA; first compound 0.1265 µM
  relative viability: 0.357
HARA; first compound 0.4 µM
  relative viability: 0.436
HARA; first compound 4 µM
  relative viability: 0.467
BEN; first compound 0.04 µM
  relative viability: 0.254
BEN; first compound 0.1265 µM
  relative viability: 0.261
BEN; first compound 0.4 µM
  relative viability: 0.294
BEN; first compound 4 µM
  relative viability: 0.264
NCI-H1355; first compound 0.04 µM
  relative viability: 0.455
NCI-H1355; first compound 0.1265 µM
  relative viability: 0.482
NCI-H1355; first compound 0.4 µM
  relative viability: 0.433
NCI-H1355; first compound 4 µM
  relative viability: 0.43
NCI-H2087; first compound 0.04 µM
  relative viability: 0.458
NCI-H2087; first compound 0.1265 µM
  relative viability: 0.451
NCI-H2087; first compound 0.4 µM
  relative viability: 0.444
NCI-H2087; first compound 4 µM
  relative viability: 0.437
EKVX; first compound 0.04 µM
  relative viability: 0.23
EKVX; first compound 0.1265 µM
  relative viability: 0.25
EKVX; first compound 0.4 µM
  relative viability: 0.234
EKVX; first compound 4 µM
  relative viability: 0.221
SK-MES-1; first compound 0.04 µM
  relative viability: 0.723
SK-MES-1; first compound 0.1265 µM
  relative viability: 0.652
SK-MES-1; first compound 0.4 µM
  relative viability: 0.665
SK-MES-1; first compound 4 µM
  relative viability: 0.546
NCI-H1792; first compound 0.04 µM
  relative viability: 0.35
NCI-H1792; first compound 0.4 µM
  relative viability: 0.303
NCI-H1792; first compound 4 µM
  relative viability: 0.526
NCI-H647; first compound 0.04 µM
  relative viability: 0.472
NCI-H647; first compound 0.1265 µM
  relative viability: 0.456
NCI-H647; first compound 0.4 µM
  relative viability: 0.606
NCI-H647; first compound 4 µM
  relative viability: 0.504
NCI-H1437; first compound 0.04 µM
  relative viability: 0.338
NCI-H1437; first compound 0.1265 µM
  relative viability: 0.306
NCI-H1437; first compound 0.4 µM
  relative viability: 0.303
NCI-H1437; first compound 4 µM
  relative viability: 0.365
NCI-H2170; first compound 0.04 µM
  relative viability: 0.406
NCI-H2170; first compound 0.1265 µM
  relative viability: 0.43
NCI-H2170; first compound 0.4 µM
  relative viability: 0.44
NCI-H2170; first compound 4 µM
  relative viability: 0.412
NCI-H2228; first compound 0.04 µM
  relative viability: 0.356
NCI-H2228; first compound 0.1265 µM
  relative viability: 0.406
NCI-H2228; first compound 0.4 µM
  relative viability: 0.287
NCI-H2228; first compound 4 µM
  relative viability: 0.289
NCI-H1734; first compound 0.04 µM
  relative viability: 0.429
NCI-H1734; first compound 0.1265 µM
  relative viability: 0.392
NCI-H1734; first compound 0.4 µM
  relative viability: 0.366
NCI-H1734; first compound 4 µM
  relative viability: 0.399
NCI-H2405; first compound 0.04 µM
  relative viability: 0.402
NCI-H2405; first compound 0.1265 µM
  relative viability: 0.411
NCI-H2405; first compound 0.4 µM
  relative viability: 0.379
NCI-H2405; first compound 4 µM
  relative viability: 0.487
NCI-H1395; first compound 0.04 µM
  relative viability: 0.495
NCI-H1395; first compound 0.1265 µM
  relative viability: 0.456
NCI-H1395; first compound 0.4 µM
  relative viability: 0.417
NCI-H1395; first compound 4 µM
  relative viability: 0.405
